Reference: patent US12516056B2, “Compounds for inhibition of janus kinase 1” (MANKIND PHARMA LTD., priority 2019, dated 2026)
Structures can show the parent of a compound that is named as a salt. Where two headings read alike, the source gives them in different places.

Assays:
Recombinant JAK2 = molecular target: T1, Recombinant JAK2 (Homo sapiens, UniProt O60674); assay: JAK biochemical assay (LANCE Ultra TR-FRET), JAK2; conditions: recombinant JAK2, TR-FRET; read-out: Biochemical Assay (μM) JAK2
T1 construct: purchased Carna Biosciences
T1 sequence (O60674 whole entry): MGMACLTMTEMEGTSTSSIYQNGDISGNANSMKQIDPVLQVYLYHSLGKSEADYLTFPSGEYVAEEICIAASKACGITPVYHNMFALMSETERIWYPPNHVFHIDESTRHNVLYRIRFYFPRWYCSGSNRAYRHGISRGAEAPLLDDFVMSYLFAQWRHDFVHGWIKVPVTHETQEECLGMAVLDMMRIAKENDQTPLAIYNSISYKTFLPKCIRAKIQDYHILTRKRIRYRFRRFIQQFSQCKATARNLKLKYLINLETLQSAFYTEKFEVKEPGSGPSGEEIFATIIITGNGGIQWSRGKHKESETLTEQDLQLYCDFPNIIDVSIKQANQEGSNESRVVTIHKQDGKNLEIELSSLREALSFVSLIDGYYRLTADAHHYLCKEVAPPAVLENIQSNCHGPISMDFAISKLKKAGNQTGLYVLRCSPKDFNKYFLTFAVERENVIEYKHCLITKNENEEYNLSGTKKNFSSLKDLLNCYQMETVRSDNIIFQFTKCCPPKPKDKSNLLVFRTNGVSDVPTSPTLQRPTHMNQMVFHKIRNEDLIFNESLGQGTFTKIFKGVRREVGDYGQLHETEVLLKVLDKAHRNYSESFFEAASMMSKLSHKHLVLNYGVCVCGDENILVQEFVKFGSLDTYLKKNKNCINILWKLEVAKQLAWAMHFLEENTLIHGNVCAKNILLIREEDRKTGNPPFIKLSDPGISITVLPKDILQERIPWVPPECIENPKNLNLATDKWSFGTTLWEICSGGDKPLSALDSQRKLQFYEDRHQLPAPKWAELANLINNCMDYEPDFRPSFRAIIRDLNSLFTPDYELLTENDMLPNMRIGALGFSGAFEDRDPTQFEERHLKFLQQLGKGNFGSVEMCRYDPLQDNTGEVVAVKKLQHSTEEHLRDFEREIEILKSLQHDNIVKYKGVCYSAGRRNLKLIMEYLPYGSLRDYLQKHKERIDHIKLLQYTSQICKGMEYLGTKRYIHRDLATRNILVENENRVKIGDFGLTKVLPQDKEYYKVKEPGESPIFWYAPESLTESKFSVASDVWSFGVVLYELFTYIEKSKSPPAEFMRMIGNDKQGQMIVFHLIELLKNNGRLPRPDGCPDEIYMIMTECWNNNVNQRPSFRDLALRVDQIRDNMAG
Outline: (§1)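 % inhibition relative to vehicle was derived from TR-FRET signal proportional to ULight-substrate phosphorylation. Reactions used recombinant kinase in HEPES pH 7.5 buffer containing EGTA, MgCl2, DTT and Tween-20.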

[1] = system: STAT5 phosphorylation by GMCSF in TF-1 cells; assay: JAK cellular assay: STAT5 phosphorylation by GMCSF in TF-1 cells (HTRF); format: cell-based; conditions: TF-1 cells, GMCSF 5 ng/ml, pSTAT5 HTRF, read-out: Cell Based Assay (μM) TF-1/GMCSF/pSTAT5
Outline: (§2)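 TF-1 cells starved overnight in low-serum OptiMEM, then 120,000/well in RPMI, preincubated with compound 30 min at 37 °C (0.2% DMSO final). Stimulation 20 min with IL-6 30 ng/ml (pSTAT3) or GMCSF 5 ng/ml (pSTAT5); lysate phospho-STAT by HTRF, unstimulated background subtracted.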

Recombinant TYK2 = molecular target: T2, Recombinant TYK2 (Homo sapiens, UniProt P29597); assay: JAK biochemical assay (LANCE Ultra TR-FRET), TYK2; conditions: recombinant TYK2, TR-FRET; read-out: Biochemical Assay (μM) TYK2
T2 construct: purchased Carna Biosciences
T2 sequence (P29597 whole entry): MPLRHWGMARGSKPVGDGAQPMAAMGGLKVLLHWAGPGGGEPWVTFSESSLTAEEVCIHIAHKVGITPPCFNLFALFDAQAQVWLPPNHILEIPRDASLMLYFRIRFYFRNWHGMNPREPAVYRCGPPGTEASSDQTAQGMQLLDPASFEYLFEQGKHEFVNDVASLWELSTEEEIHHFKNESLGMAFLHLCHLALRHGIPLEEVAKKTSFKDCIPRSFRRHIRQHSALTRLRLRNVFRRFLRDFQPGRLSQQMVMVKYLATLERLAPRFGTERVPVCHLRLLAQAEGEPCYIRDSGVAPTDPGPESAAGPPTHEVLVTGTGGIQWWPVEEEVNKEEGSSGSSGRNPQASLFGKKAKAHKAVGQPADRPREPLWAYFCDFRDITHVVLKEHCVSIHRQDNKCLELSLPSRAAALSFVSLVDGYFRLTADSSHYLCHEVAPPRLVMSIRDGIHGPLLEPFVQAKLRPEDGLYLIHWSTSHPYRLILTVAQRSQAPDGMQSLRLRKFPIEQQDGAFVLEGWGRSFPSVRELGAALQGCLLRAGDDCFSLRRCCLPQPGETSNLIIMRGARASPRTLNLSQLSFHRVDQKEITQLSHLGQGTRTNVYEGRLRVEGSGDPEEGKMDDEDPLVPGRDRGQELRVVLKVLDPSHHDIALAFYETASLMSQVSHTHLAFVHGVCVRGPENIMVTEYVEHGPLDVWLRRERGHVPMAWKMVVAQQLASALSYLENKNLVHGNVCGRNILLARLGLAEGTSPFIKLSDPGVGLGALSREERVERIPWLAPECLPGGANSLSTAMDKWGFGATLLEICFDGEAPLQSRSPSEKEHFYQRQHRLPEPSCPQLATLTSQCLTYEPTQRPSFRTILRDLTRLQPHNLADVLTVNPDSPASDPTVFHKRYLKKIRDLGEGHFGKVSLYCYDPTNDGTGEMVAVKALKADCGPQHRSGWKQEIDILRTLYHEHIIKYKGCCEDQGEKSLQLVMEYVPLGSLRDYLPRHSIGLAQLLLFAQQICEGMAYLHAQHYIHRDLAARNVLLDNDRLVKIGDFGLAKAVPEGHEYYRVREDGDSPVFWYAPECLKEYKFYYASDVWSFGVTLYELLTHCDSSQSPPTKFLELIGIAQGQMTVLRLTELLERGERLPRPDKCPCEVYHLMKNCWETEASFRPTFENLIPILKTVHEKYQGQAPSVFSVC
Outline: as §1

[2] = system: STAT3 phosphorylation by IL-6 in TF-1 cells; assay: JAK cellular assay: STAT3 phosphorylation by IL-6 in TF-1 cells (HTRF); format: cell-based; conditions: IL-6 30 ng/ml, pSTAT3 HTRF, read-out: Cell Based Assay (μM) TF-1/IL-6/pSTAT3
Outline: as §2

[3] = system: STAT5 phosphorylation by IL-2 in HT-2 cells; assay: STAT5 phosphorylation by IL-2 in HT-2 cells (HTRF); format: cell-based; conditions: IL-2 50 U/ml, pSTAT5 HTRF, read-out: Cell Based Assay (μM) HT-2/IL-2/pSTAT5
Outline: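 Starved HT-2 cells (120,000/well) were preincubated 30 min at 37 °C with compound (0.2% DMSO), then stimulated 20 min with human IL-2 (50 U/ml). pSTAT5 in lysates measured by HTRF, with unstimulated-cell background subtracted.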

Recombinant JAK1 = molecular target: T3, Recombinant JAK1 (Homo sapiens, UniProt P23458); assay: JAK biochemical assay (LANCE Ultra TR-FRET), JAK1; conditions: recombinant JAK1, TR-FRET; read-out: Biochemical Assay (μM) JAK1
T3 construct: purchased Carna Biosciences
T3 sequence (P23458 whole entry): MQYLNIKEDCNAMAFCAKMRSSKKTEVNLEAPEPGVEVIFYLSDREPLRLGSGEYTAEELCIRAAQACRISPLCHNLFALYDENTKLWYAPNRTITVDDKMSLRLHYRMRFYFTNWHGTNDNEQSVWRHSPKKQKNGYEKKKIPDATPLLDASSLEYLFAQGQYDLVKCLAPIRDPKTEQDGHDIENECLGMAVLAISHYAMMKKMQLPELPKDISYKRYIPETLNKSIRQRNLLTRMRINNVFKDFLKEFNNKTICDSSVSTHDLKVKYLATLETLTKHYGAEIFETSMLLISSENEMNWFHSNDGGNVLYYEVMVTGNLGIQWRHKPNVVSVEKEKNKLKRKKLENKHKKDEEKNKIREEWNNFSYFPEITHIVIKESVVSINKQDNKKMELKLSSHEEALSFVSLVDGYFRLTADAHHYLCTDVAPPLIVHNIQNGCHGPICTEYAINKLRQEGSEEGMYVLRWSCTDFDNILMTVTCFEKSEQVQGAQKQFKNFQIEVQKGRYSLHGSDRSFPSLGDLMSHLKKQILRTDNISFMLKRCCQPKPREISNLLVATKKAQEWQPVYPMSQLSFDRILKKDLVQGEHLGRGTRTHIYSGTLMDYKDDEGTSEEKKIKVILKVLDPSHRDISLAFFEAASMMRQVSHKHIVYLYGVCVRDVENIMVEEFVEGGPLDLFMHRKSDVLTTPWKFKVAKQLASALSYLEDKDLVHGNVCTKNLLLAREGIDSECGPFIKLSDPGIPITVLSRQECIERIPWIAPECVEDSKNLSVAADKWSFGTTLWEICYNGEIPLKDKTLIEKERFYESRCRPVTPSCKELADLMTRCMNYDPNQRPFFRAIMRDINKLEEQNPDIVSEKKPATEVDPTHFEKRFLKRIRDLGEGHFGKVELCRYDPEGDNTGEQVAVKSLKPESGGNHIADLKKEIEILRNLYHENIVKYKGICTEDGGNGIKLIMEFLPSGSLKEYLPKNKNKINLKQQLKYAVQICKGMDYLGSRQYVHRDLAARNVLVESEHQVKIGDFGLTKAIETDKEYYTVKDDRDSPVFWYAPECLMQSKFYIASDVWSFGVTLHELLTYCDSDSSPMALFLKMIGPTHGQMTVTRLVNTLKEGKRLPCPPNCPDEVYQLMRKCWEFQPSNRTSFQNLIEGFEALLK
Outline: as §1

Recombinant JAK3 = molecular target: T4, Recombinant JAK3 (Homo sapiens, UniProt P52333); assay: JAK biochemical assay (LANCE Ultra TR-FRET), JAK3; conditions: recombinant JAK3, TR-FRET; read-out: Biochemical Assay (μM) JAK3
T4 construct: purchased Carna Biosciences
T4 sequence (P52333 1-1124): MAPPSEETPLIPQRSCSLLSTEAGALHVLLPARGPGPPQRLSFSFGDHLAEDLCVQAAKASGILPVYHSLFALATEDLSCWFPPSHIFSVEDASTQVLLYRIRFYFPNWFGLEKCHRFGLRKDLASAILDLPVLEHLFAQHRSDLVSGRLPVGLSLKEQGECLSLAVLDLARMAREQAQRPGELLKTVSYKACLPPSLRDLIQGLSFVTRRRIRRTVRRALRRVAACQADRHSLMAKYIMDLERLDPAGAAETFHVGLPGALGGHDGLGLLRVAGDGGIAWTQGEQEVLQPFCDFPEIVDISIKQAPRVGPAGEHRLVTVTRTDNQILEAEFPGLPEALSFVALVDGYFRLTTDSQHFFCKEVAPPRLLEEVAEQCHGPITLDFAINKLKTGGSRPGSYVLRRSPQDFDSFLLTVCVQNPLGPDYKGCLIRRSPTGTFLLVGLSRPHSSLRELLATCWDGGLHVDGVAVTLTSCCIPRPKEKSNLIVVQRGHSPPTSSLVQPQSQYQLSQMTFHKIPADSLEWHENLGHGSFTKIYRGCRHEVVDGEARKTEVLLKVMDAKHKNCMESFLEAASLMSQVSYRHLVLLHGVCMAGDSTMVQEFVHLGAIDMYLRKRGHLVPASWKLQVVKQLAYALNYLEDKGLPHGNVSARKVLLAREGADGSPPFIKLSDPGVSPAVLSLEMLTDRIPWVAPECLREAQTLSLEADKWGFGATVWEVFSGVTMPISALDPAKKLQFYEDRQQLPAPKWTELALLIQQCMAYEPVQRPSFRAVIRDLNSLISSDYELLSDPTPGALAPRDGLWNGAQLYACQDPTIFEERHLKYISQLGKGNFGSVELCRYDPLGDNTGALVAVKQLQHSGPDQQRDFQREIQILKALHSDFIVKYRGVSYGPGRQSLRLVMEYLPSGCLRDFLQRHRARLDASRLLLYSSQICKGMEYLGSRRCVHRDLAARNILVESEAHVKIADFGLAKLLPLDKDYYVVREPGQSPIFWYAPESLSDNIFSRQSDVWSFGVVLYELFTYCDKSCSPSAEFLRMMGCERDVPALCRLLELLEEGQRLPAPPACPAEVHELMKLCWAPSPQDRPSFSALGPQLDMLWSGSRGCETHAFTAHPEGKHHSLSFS
Outline: as §1

[4] = system: IFN-γ production in NK 92 cells by IL-12; assay: IFN-γ production in NK 92 cells by IL-12 (ELISA); conditions: NK92, IFN-γ secretion, read-out: Cell Based Assay (μM) NK-92/IL-2/IFN-γ

IC50 (Recombinant JAK2) [µM]	IC50 ([1]; Homo sapiens) [µM]	IC50 (Recombinant TYK2) [µM]	IC50 ([2]; TF-1 cells) [µM]	IC50 ([3]; HT-2 cells) [µM]	IC50 (Recombinant JAK1) [µM]	IC50 (Recombinant JAK3) [µM]	IC50 [1] [µM]	IC50 ([2]; Homo sapiens, TF-1, TF-1 cells) [µM]	IC50 ([3]; HT2, HT-2 cells) [µM]	IC50 [4] [µM]	Compound
< 0.1	1	> 0.5	0.1	0.6	< 0.1	< 0.1	–	–	–	–	CNCCC(c1ccc(-n2cc(-c3ccnc4[nH]cnc34)cn2)nc1)C(F)(F)F (stereo not shown) [Example 1198, 3-(6-(4-(3H-imidazo[4,5-b]pyridin-7-yl)-1H-pyrazol-1-yl)pyridin-3-yl)-4,4,4-trifluoro-N-methylbutan-1-amine]
0.015	–	0.52	0.1	0.6	0.023	0.009	1	–	–	–	CNCCC(c1ccc(-n2cc(-c3ccnc4[nH]cnc34)cn2)nc1)C(F)(F)F (stereo not shown) [Example 1200, 3-(6-(4-(3H-imidazo[4,5-b]pyridin-7-yl)-1H-pyrazol-1-yl)pyridin-3-yl)-4,4,4-trifluoro-N-methylbutan-1-amine]
< 0.1	> 1	> 0.5	–	–	< 0.1	< 0.1	–	> 0.1	> 0.5	–	CC(C)NCCC(c1ccc(-n2cc(-c3ccnc4[nH]cnc34)cn2)nc1)C(F)(F)F (stereo not shown) [Example 1203, 3-(6-(4-(3H-imidazo[4,5-b]pyridin-7-yl)-1H-pyrazol-1-yl)pyridin-3-yl)-4,4,4-trifluoro-N-isopropylbutan-1-amine]
0.015	> 1	0.39	–	–	0.002	0.004	–	> 0.1	> 0.5	–	CS(=O)(=O)CCC(O)(c1ccc(-n2cc(-c3ccnc4[nH]cnc34)cn2)nc1)C(F)(F)F (stereo not shown) [Example 1223, 2-(6-(4-(3H-imidazo[4,5-b]pyridin-7-yl)-1H-pyrazol-1-yl)pyridin-3-yl)-1,1,1-trifluoro-4-(methylsulfonyl)butan-2-ol]
> 0.03	> 1	> 1	–	–	< 0.01	> 0.03	–	> 0.5	> 0.75	–	CC(C)N1CCC([C@](O)(c2ccc(-n3cc(-c4ccnc5[nH]cnc45)cn3)nc2)C(F)(F)F)C1 (stereo partly drawn) [Example 1226, (S)-1-(6-(4-(3H-imidazo[4,5-b]pyridin-7-yl)-1H-pyrazol-1-yl)pyridin-3-yl)-2,2,2-trifluoro-1-(1-isopropylpyrrolidin-3-yl)ethanol]
< 0.1	> 0.75	> 0.1	–	–	< 0.1	< 0.1	–	> 0.1	> 0.5	–	N#CCCC(O)(c1ccc(-n2cc(-c3ccnc4[nH]cnc34)cn2)nc1)C(F)(F)F (stereo not shown) [Example 1227, 4-(6-(4-(3H-imidazo[4,5-b]pyridin-7-yl)-1H-pyrazol-1-yl)pyridin-3-yl)-5,5,5-trifluoro-4-hydroxypentanenitrile]
< 0.1	> 1	> 0.1	–	–	< 0.1	< 0.1	–	> 0.5	> 0.5	–	CNCCOC(c1ccc(-n2cc(-c3ccnc4[nH]cnc34)cn2)nc1)C(F)(F)F (stereo not shown) [Example 1228, 2-(1-(6-(4-(3H-imidazo[4,5-b]pyridin-7-yl)-1H-pyrazol-1-yl)pyridin-3-yl)-2,2,2-trifluoroethoxy)-N-methylethanamine]
–	> 1	0.67	–	–	0.006	–	–	0.14	0.47	> 1	CN1CCC([C@](O)(c2ccc(-n3cc(-c4ccnc5[nH]cnc45)cn3)nc2)C(F)(F)F)C1 (stereo partly drawn) [Example 1234, (S)-1-(6-(4-(3H-imidazo[4,5-b]pyridin-7-yl)-1H-pyrazol-1-yl)pyridin-3-yl)-2,2,2-trifluoro-1-(1-methylpyrrolidin-3-yl)ethanol]
> 0.03	> 1	> 1	–	–	–	–	–	0.36	0.55	> 1	CN1CCC([C@@](O)(c2ccc(-n3cc(-c4ccnc5[nH]cnc45)cn3)nc2)C(F)(F)F)C1 (stereo partly drawn) [Example 1235, (R)-1-(6-(4-(3H-imidazo[4,5-b]pyridin-7-yl)-1H-pyrazol-1-yl)pyridin-3-yl)-2,2,2-trifluoro-1-(1-methylpyrrolidin-3-yl)ethanol]
0.01	> 1	–	–	–	–	0.005	–	0.19	> 0.5	> 3	CC(C)N1CC(C(O)(c2ccc(-n3cc(-c4ccnc5[nH]cnc45)cn3)nc2)C(F)(F)F)C1 (stereo not shown) [Example 1237, 1-(6-(4-(3H-imidazo[4,5-b]pyridin-7-yl)-1H-pyrazol-1-yl)pyridin-3-yl)-2,2,2-trifluoro-1-(1-isopropylazetidin-3-yl)ethanol]
> 0.1	> 1	> 1	–	–	< 0.1	< 0.1	–	> 0.5	> 0.75	–	CC(C)NCCOC(c1ccc(-n2cc(-c3ccnc4[nH]cnc34)cn2)nc1)C(F)(F)F (stereo not shown) [Example 1241, N-(2-(1-(6-(4-(3H-imidazo[4,5-b]pyridin-7-yl)-1H-pyrazol-1-yl)pyridin-3-yl)-2,2,2-trifluoroethoxy)ethyl)propan-2-amine, TFA salt]
< 0.1	> 1	> 1	–	–	< 0.1	< 0.1	–	> 1	> 1	–	O[C@@](c1ccc(-n2cc(-c3ccnc4[nH]cnc34)cn2)nc1)(C1CCN(C2COC2)C1)C(F)(F)F (stereo partly drawn) [Example 1242, (R)-1-(6-(4-(3H-imidazo[4,5-b]pyridin-7-yl)-1H-pyrazol-1-yl)pyridin-3-yl)-2,2,2-trifluoro-1-(1-(oxetan-3-yl)pyrrolidin-3-yl)ethanol]
< 0.1	> 1	> 1	–	–	< 0.1	< 0.1	–	> 1	> 1	–	O[C@](c1ccc(-n2cc(-c3ccnc4[nH]cnc34)cn2)nc1)(C1CCN(C2COC2)C1)C(F)(F)F (stereo partly drawn) [Example 1243, (S)-1-(6-(4-(3H-imidazo[4,5-b]pyridin-7-yl)-1H-pyrazol-1-yl)pyridin-3-yl)-2,2,2-trifluoro-1-(1-(oxetan-3-yl)pyrrolidin-3-yl)ethanol]
